Consider three compounds from BindingDB's records for doi:10.1016/j.bmcl.2008.12.086 (Columbia University, 2009).

The structures appear in SMILES notation.

Assay [1] has as its target T1, Transcription factor p65 (Human, UniProt Q04206). In words: Induction of NF-kappaB p65 nuclear translocation in HUVEC cells by immunostaining.
Assay [2] deals with T1, Transcription factor p65. In words: Potentiation of TNF-alpha-induced NF-kappaB p65 nuclear translocation in HUVEC cells by immunostaining.

T1 sequence (Q04206 whole entry): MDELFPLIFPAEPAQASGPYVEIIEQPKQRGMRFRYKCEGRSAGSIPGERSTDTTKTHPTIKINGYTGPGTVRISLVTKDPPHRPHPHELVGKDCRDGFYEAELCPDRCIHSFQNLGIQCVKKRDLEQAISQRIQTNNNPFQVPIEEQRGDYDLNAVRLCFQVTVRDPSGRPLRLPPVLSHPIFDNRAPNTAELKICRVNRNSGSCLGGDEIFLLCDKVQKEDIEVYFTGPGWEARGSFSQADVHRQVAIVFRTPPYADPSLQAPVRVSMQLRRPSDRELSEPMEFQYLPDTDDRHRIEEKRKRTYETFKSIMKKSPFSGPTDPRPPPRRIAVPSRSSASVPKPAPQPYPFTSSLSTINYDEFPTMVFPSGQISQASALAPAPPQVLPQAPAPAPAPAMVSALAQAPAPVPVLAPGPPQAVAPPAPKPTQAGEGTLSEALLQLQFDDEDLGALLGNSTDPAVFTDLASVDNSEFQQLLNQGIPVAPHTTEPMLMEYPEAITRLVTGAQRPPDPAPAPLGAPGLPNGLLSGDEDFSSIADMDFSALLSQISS

Take `COc1cccc2nc(-c3cccs3)nc(NN3C(=O)C=C(C)C3=O)c12` [1-(5-Methoxy-2-thiophen-2-yl-quinazolin-4-ylamino)-3-methyl-pyrrole-2,5-dione]: the EC50 (in general, the concentration that produces a half-maximal response) turned out to be 1600 nM on Transcription factor p65 [1] and 380 nM at Transcription factor p65 [2].

`COc1ccc2nc(-c3cccs3)nc(NN3C(=O)C=C(C)C3=O)c2c1` [1-(6-methoxy-2-(thiophen-2-yl)quinazolin-4-ylamino)-3-methyl-1H-pyrrole-2,5-dione]: the EC50 at Transcription factor p65 [1] amounted to 9800 nM; at Transcription factor p65 [2] it was 42000 nM.

As to `COc1ccc(Cl)c2nc(-c3cccs3)nc(NN3C(=O)C=C(C)C3=O)c12` [1-(8-chloro-5-methoxy-2-(thiophen-2-yl)quinazolin-4-ylamino)-3-methyl-1H-pyrrole-2,5-dione], the values for the EC50 on Transcription factor p65 [1] and at Transcription factor p65 [2] were 2400 nM and 310 nM, respectively.
